Results: US20210253642A1, “CALPAIN MODULATORS AND THERAPEUTIC USES THEREOF BACKGROUND” (Blade Therapeutics, Inc., priority 2018, published 2021)

Key:
Format in all cases: biochemical
Human Cathepsin K = molecular target: T1, Human Cathepsin K (Homo sapiens, UniProt P43235); assay: Cathepsin continuous fluorescence inhibition assay; details: Column E; enzyme 10 nM, substrate 1 uM, pH 5.5, 30 minutes pre-incubation with inhibitor
T1 construct: purchased
T1 sequence (P43235 115-329): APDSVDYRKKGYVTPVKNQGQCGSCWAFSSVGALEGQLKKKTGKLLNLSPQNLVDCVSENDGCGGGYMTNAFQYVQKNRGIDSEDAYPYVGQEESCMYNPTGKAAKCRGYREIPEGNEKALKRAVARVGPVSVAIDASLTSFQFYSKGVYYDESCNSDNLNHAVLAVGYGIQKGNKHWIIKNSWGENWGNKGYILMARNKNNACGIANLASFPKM
Method: (§1) Cathepsin activity and inhibition thereof was assessed by means of a continuous fluorescence assay. All assays were run in 384 well format and utilized peptide substrates that liberate fluorescence upon protease catalyzed cleavage. FLIPR plate readers (Molecular Devices Inc.) were used to monitor reactions and extract initial rates which were then fit (four parameter logistic function) to obtain IC50 values. All enzymes are human. All enzymes and reagents were obtained commercially and are summarized in Tables 1 and 2 below along with assay conditions.

Human Cathepsin S = molecular target: T2, Human Cathepsin S (Homo sapiens, UniProt P25774); assay: Cathepsin continuous fluorescence inhibition assay; details: Column F; enzyme 6 nM, substrate 1 uM, pH 4.5, 30 minutes pre-incubation with inhibitor
T2 construct: purchased
T2 sequence (P25774 115-331): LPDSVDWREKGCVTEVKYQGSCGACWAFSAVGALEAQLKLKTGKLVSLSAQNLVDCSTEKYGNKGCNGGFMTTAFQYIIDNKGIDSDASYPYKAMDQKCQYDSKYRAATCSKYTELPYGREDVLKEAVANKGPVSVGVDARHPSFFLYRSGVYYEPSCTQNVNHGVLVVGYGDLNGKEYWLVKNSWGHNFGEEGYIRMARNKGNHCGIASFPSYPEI
Method: as §1

Human Cathepsin L = molecular target: T3, Human Cathepsin L (Homo sapiens, UniProt P07711); assay: Cathepsin continuous fluorescence inhibition assay; details: Column G; enzyme 0.025 nM, substrate 1 uM, pH 6.0, 30 minutes pre-incubation with inhibitor
T3 construct: purchased
T3 sequence (P07711 114-333): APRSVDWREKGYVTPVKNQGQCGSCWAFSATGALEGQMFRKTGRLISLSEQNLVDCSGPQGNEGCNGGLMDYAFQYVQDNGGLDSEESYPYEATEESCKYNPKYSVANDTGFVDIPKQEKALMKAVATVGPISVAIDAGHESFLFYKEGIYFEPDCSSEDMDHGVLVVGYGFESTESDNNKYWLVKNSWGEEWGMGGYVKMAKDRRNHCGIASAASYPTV
Method: as §1

Human Cathepsin B = molecular target: T4, Human Cathepsin B (Homo sapiens, UniProt P07858); assay: Cathepsin continuous fluorescence inhibition assay; details: Column D; enzyme 25 nM, substrate 1 uM, pH 5.0, 30 minutes pre-incubation with inhibitor
T4 construct: purchased
Method: as §1

Human Calpain 9/NS1 = molecular target: T5, Human Calpain 9/NS1 (Homo sapiens, UniProt O14815); assay: Calpain continuous fluorescence (FRET) inhibition assay; details: Column C; SensoLyte 520 FRET substrate, pH 7.5, 25C
T5 sequence (O14815 1-690): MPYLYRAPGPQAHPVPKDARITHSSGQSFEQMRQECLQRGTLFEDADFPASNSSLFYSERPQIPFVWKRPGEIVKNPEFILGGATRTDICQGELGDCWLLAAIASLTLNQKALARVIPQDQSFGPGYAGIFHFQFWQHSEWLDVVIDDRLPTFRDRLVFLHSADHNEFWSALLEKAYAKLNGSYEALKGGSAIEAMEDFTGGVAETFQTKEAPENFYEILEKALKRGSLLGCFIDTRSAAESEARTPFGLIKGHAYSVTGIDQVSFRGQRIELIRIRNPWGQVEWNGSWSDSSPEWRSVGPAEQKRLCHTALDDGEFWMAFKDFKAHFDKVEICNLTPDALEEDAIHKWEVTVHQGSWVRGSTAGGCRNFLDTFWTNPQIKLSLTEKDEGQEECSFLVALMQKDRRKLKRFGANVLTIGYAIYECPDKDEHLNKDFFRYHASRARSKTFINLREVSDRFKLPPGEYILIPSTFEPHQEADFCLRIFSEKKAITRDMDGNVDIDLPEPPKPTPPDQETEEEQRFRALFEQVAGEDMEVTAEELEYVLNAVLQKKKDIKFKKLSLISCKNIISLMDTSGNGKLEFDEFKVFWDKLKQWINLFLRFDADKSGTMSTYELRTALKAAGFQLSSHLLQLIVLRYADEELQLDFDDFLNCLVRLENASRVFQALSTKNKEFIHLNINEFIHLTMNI
T5 sequence (P04632 1-268 partner): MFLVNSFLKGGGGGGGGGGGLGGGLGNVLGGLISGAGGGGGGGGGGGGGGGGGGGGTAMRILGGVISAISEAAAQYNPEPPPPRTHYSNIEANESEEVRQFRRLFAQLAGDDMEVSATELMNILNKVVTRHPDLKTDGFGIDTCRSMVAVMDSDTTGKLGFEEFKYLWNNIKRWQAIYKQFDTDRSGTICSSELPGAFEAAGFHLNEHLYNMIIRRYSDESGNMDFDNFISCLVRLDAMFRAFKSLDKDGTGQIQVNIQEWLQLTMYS
Method: (§2) Calpain 1, 2, and 9 activity and inhibition thereof was assessed by means of a continuous fluorescence assay. The SensoLyte 520 Calpain substrate (Anaspec Inc.) was optimized for detecting calpain activity. This substrate contains an internally quenched 5-FAM/QXLTM 520 FRET pair. Calpains 1, 2, and 9 cleave the FRET substrate into two separate fragments resulting in an increase of 5-FAM fluorescence that is proportional to calpain activity
(§3) Assays were typically setup in black 384-well plates using automated liquid handling as follows. Calpain assay base buffer typically contains 50 mM Tris, pH 7.5, 100 mM NaCl and 1 mM DTT. Inhibitors were serially diluted in DMSO and used to setup 2× mixtures with calpains in the aforementioned buffer. After incubation at ambient temperature (25C), the reaction was initiated by adding a 2× mix of the fluorescent peptide substrate and CaCl2) (required for in-situ calpain activation) in the same buffer. Reaction progress curve data were typically collected for 10 min using excitation/emission wavelengths of 490 nm/520 nm on SpectraMax i3x or the FLIPR-Tetra plate readers (Molecular Devices Inc.). Reaction rates were calculated from progress curve slopes typically over 1-5 min. Dose response curves (rate vs. log inhibitor concentration) were typically fit to a 4-parameter logistic function to extract IC50 values.

Human Calpain 1/NS1 = molecular target: T6, Human Calpain 1/NS1 (Homo sapiens, UniProt P07384); assay: as above; details: Column A; SensoLyte 520 FRET substrate, pH 7.5, 25C
T6 sequence (P07384 1-714): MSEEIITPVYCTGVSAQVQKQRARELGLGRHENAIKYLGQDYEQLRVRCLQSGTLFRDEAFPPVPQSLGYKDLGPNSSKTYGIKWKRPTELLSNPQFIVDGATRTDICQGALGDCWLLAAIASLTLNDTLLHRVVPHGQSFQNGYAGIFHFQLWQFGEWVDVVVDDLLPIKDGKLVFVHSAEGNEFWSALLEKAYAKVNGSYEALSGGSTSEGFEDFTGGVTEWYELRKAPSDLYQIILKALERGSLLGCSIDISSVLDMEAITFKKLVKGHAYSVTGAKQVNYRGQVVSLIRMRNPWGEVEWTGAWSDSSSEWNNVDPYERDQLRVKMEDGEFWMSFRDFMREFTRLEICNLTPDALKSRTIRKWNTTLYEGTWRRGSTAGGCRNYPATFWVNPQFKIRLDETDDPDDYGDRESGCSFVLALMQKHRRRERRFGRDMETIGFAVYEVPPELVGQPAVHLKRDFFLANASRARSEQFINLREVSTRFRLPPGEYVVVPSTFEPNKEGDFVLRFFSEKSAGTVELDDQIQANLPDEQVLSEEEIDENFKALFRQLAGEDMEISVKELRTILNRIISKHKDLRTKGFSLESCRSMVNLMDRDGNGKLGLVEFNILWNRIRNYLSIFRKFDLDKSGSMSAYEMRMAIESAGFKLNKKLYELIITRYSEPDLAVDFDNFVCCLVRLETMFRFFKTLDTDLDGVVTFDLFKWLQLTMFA
T6 sequence (P04632 1-268 partner): T5 sequence (P04632 1-268 partner)
Method: as §2, §3

Human Calpain 2/NS1 = molecular target: T7, Human Calpain 2/NS1 (Homo sapiens, UniProt P17655); assay: as above; details: Column B; SensoLyte 520 FRET substrate, pH 7.5, 25C
T7 sequence (P17655 1-700): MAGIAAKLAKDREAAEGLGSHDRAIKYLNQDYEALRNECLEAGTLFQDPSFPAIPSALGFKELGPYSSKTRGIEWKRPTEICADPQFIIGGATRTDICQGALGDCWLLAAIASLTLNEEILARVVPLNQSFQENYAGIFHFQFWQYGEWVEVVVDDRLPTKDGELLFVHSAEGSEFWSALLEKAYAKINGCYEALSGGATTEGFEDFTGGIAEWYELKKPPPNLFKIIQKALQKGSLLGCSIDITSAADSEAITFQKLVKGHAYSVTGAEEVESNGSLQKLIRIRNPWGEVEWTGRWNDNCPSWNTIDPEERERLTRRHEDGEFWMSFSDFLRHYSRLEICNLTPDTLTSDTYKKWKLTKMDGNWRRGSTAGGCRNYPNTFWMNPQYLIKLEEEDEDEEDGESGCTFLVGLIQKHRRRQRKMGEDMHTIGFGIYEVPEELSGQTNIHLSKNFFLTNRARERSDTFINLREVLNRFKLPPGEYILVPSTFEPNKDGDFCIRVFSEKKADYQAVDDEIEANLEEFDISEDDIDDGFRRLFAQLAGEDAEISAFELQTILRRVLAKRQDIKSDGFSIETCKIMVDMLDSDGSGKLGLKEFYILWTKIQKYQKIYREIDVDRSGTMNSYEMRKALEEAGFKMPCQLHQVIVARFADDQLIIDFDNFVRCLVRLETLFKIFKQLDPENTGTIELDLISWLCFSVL
T7 sequence (P04632 1-268 partner): T5 sequence (P04632 1-268 partner)
Method: as §2, §3

Structure (SMILES): CC(C)[C@@H]1NC(=O)/C=C/[C@@H](NC(=O)OC(C)(C)C)COC(=O)[C@H](Cc2ccc(O)cc2)NC1=O [Compound 1, Tert-butyl ((3S,6S,11R,E)-3-(4-Hydroxybenzyl)-6-isopropyl-2,5,8-trioxo-1-oxa-4,7-Diazacyclododec-9-en-11-yl)carbamate]
- IC50 (Human Cathepsin K): < 3 µM
- IC50 (Human Cathepsin S): < 3 µM
- IC50 (Human Cathepsin L): < 3 µM
- IC50 (Human Cathepsin B): < 3 µM
- IC50 (Human Calpain 9/NS1): > 10 µM
- IC50 (Human Calpain 1/NS1): > 10 µM
- IC50 (Human Calpain 2/NS1): > 10 µM

Structure (SMILES): CC(C)[C@@H]1NC(=O)/C=C/[C@@H](NC(=O)[C@@H](NC(=O)OC(C)(C)C)C(C)C)COC(=O)[C@H](Cc2ccc(O)cc2)NC1=O [Compound 2, Tert-butyl ((S)-1-(((3S,6S,11R,E)-3-(4-hydroxybenzyl)-6-isopropyl-2,5,8-trioxo-1-oxa-4,7-diazacyclododec-9-en-11-yl)amino)-3-methyl-1-oxobutan-2-yl)carbamate]
- IC50 (Human Cathepsin K): < 3 µM
- IC50 (Human Cathepsin S): < 3 µM
- IC50 (Human Cathepsin L): < 3 µM
- IC50 (Human Cathepsin B): < 3 µM
- IC50 (Human Calpain 9/NS1): > 10 µM
- IC50 (Human Calpain 1/NS1): 3 to 10 µM
- IC50 (Human Calpain 2/NS1): < 3 µM

Structure (SMILES): CC(C)[C@@H]1NC(=O)/C=C/[C@@H](NC(=O)[C@@H](NC(=O)[C@H](Cc2ccc(O)cc2)NC(=O)OC(C)(C)C)C(C)C)COC(=O)[C@H](Cc2ccc(O)cc2)NC1=O [Compound 3, Tert-butyl ((S)-1-(((S)-1-(((3S,6S,11R,E)-3-(4-Hydroxybenzyl)-6-isopropyl-2,5,8-trioxo-1-oxa-4,7-diazacyclododec-9-en-11-yl)amino)-3-methyl-1-oxobutan-2-yl)amino)-3-(4-hydroxyphenyl)-1-oxopropan-2-yl)carbamate]
- IC50 (Human Cathepsin K): < 3 µM
- IC50 (Human Cathepsin S): < 3 µM
- IC50 (Human Cathepsin L): < 3 µM
- IC50 (Human Cathepsin B): < 3 µM
- IC50 (Human Calpain 9/NS1): > 10 µM
- IC50 (Human Calpain 1/NS1): < 3 µM
- IC50 (Human Calpain 2/NS1): < 3 µM

Structure (SMILES): CC(C)[C@@H]1NC(=O)/C=C/[C@@H](N)COC(=O)[C@H](Cc2ccc(O[Si](C)(C)C(C)(C)C)cc2)NC1=O [Compound 4, (3S,6S,11R,E)-11-amino-3-(4-((tert-butyldimethylsilyl)oxy)benzyl)-6-isopropyl-1-oxa-4,7-diazacyclododec-9-ene-2,5,8-trione]
- IC50 (Human Cathepsin K): < 3 µM
- IC50 (Human Cathepsin S): 3 to 10 µM
- IC50 (Human Cathepsin L): 3 to 10 µM
- IC50 (Human Cathepsin B): > 10 µM
- IC50 (Human Calpain 9/NS1): > 10 µM
- IC50 (Human Calpain 1/NS1): > 10 µM
- IC50 (Human Calpain 2/NS1): > 10 µM

Structure (SMILES): CC(C)[C@@H]1NC(=O)/C=C/[C@@H](NC(=O)OC(C)(C)C)COC(=O)[C@H](Cc2ccccc2)NC1=O [Compound 5, Tert-butyl ((3S,6S,11R,E)-3-benzyl-6-isopropyl-2,5,8-trioxo-1-oxa-4,7-diazacyclododec-9-en-11-yl)carbamate]
- IC50 (Human Cathepsin K): < 3 µM
- IC50 (Human Cathepsin S): < 3 µM
- IC50 (Human Cathepsin L): < 3 µM
- IC50 (Human Cathepsin B): 3 to 10 µM
- IC50 (Human Calpain 9/NS1): > 10 µM
- IC50 (Human Calpain 1/NS1): > 10 µM
- IC50 (Human Calpain 2/NS1): > 10 µM

Structure (SMILES): CC(C)[C@@H]1NC(=O)/C=C/[C@@H](NC(=O)[C@@H](NC(=O)[C@H](Cc2ccccc2)NC(=O)OC(C)(C)C)C(C)C)COC(=O)[C@H](Cc2ccc(O)cc2)NC1=O [Compound 6]
- IC50 (Human Cathepsin K): < 3 µM
- IC50 (Human Cathepsin S): < 3 µM
- IC50 (Human Cathepsin L): < 3 µM
- IC50 (Human Cathepsin B): < 3 µM
- IC50 (Human Calpain 9/NS1): > 10 µM
- IC50 (Human Calpain 1/NS1): < 3 µM
- IC50 (Human Calpain 2/NS1): < 3 µM

Structure (SMILES): CC(C)[C@@H]1NC(=O)/C=C/[C@@H](NC(=O)[C@@H](NC(=O)CNC(=O)OC(C)(C)C)C(C)C)COC(=O)[C@H](Cc2ccc(O)cc2)NC1=O [Compound 7, tert-butyl (2-(((s)-1-(((3S,6S,11R,E)-3-(4-hydroxybenzyl)-6-isopropyl-2,5,8-trioxo-1-oxa-4,7-diazacyclododec-9-en-11-yl)amino)-3-methyl-1-oxobutan-2-yl)amino)-2-oxoethyl)carbamate]
- IC50 (Human Cathepsin K): < 3 µM
- IC50 (Human Cathepsin S): < 3 µM
- IC50 (Human Cathepsin L): < 3 µM
- IC50 (Human Cathepsin B): < 3 µM
- IC50 (Human Calpain 9/NS1): > 10 µM
- IC50 (Human Calpain 1/NS1): 3 to 10 µM
- IC50 (Human Calpain 2/NS1): 3 to 10 µM
